In ChEMBL document CHEMBL4811258, “Potent Antimalarials with Development Potential Identified by Structure-Guided Computational Optimization of a Pyrrole-Based Dihydroorotate Dehydrogenase Inhibitor Series” (J Med Chem, 2021):

Assays:
L1210 = experiment: Cytotoxicity against mouse L1210 cells; format: cell-based
Albumin = Albumin (Bos taurus, UniProt P02769); experiment: Binding affinity to bovine serum albumin by Albumax assay; format: ADME; settings: cattle, isolated protein
[1] = Binding affinity to microsome (unknown origin); format: ADME; settings: microsomes
[2] = Unbound intrinsic clearance in mouse liver microsomes at 1 uM measured up to 4 hrs by LC-MS analysis; format: ADME, Microsome
[3] = Oral bioavailability in Swiss mouse at […] measured up to 24 hrs by LC-MS analysis; format: ADME, organism-based; settings: in vivo, dose 2.6 mg/kg
[4] = AUC (0 to infinity) in Swiss mouse at 24 mg/kg, po measured up to 24 hrs by LC-MS analysis; format: ADME, organism-based; design: route oral, dose 24 mg/kg, time <=24; settings: in vivo
[5] = Volume of distribution at steady state in Sprague-Dawley rat at […], iv measured up to 24 hrs; format: ADME, organism-based; settings: in vivo, dose 1.8 mg/kg, read-out: Vdss
[6] = Apparent half life in Sprague-Dawley rat at 17 mg/kg, po measured up to 24 hrs; format: ADME, organism-based; settings: in vivo, read-out: t1/2(app) (converted)
Plasmodium falciparum [7] = experiment: Antiplasmodial activity against Plasmodium falciparum 3D7 Uganda infected in human erythrocytes assessed as parasite killing using albumax media measured after 72 hrs by SYBR Green assay; format: functional, organism-based; settings: 3D7, 72 h
Plasmodium falciparum [8] = experiment: Antimalarial activity against Plasmodium falciparum 3D70087/N9 infected in orally dosed NOD-SCID IL2Rgamma null mouse assessed as parasitemia level administered days after 3 post infection once daily for 4 days measured on day 7 by flow cytometry; format: functional; settings: time 4 day
Plasmodium falciparum [9] = system: Plasmodium falciparum
[10] = rat, plasma
[11] = human, caco-2, pH 7.4
in vivo = settings: Swiss, mouse, po

Sequence of Albumin (P02769 whole entry): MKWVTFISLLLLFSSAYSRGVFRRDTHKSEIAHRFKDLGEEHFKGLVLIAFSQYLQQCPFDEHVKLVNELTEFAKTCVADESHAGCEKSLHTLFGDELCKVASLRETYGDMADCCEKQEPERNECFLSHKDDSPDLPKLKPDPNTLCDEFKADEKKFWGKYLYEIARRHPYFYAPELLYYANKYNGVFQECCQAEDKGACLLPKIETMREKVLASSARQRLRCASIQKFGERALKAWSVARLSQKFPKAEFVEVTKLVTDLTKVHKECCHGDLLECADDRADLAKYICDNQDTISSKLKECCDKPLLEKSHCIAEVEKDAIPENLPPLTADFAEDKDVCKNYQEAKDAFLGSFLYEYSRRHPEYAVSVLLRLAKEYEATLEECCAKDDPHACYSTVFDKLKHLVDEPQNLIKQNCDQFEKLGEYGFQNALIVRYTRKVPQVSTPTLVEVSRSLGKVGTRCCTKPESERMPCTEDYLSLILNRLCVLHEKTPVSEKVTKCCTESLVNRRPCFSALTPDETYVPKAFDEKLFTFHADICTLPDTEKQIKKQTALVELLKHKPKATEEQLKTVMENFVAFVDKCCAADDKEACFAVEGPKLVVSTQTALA

SMILES: Cc1c(C2(c3ccc(C(F)(F)F)nc3)CC2)c[nH]c1C(=O)NC(C)c1nc[nH]n1 (stereo in doubt; form 1)
- Activity (L1210): Non-Toxic
- Activity (Albumin): 71.9%
- Activity [1]: 34.2%
- CL free [2]: 17 µL/min/mg
- bioavailability at 24 h [3]: 74%
- AUC [4]: 250 µM·h
- Vd at 24 h [5]: 2.1 L/kg
- half-life [6]: 3.7 h
- EC50 (Plasmodium falciparum [7]): 7.5 nM
- ED50 (Plasmodium falciparum [8]): 26 mg/kg
- EC50 (Plasmodium falciparum [9]): 170 nM
- PPB [10]: 94.3%
- Papp [11]: 70 10^-6 cm/s
- Tmax at 24 h (in vivo): 4 h
